The text below walks through data of paper PMC11345769, “(SiFA)SeFe: A Hydrophilic Silicon-Based Fluoride Acceptor Enabling Versatile Peptidic Radiohybrid Tracers” (Journal of medicinal chemistry, 2024).

Data set [1] addresses T1, human serum albumin (Homo sapiens, UniProt P02768).
T1 construct: purchased Daicel, Tokio, Japan Chiralpak HSA column (50 × 3 mm, 5 μm, H13 h-2433)
The data set is described as follows: human serum albumin binding by HPAC. Type of data set: in vitro ADME. As to conditions: non-radiolabeled compounds, n=1. How it is done: High performance affinity chromatography (HPAC) was used to determine representative values for HSA binding of the ligands and their references, since it can influence the distribution and pharmacokinetics of radiopharmaceuticals.[43],[44]
HSA binding studies were performed according to a previously published procedure, using RP-HPLC and HSA which is solid-phase fixed on a Chiralpak HSA column (50 × 3 mm, 5 μm, H13 h-2433, Daicel, Tokio, Japan).[51] A flow rate of 0.5 mL/min at RT was used. A freshly prepared 50 mM aqueous solution of NH4OAc (pH 6.9) was used as mobile phase A, and isopropanol (HPLC grade, VWR, Germany) was used as mobile phase B. A gradient of 100% A (0 to 3 min) followed by 80% A (3 to 40 min) was used for the experiments. Before the analysis of all compounds, the column was calibrated with nine reference substances having HSA binding known from the literature in the range of 13 to 99%.[51],[52] All compounds, were prepared in a 1/1 mixture (v/v) of isopropanol and a 50 mM aqueous solution of NH4OAc (pH 6.9) at a final concentration of 0.5 mg/mL. Nonlinear regression was performed using OriginPro 2016G software (North-ampton, United States).

The nature of data set [2]: stability in human serum (radio-RP-HPLC). Type of data set: in vitro ADME. As to conditions: 37 °C; for Intact tracer in human serum, 24 h: n=3; for remaining at 24 h, 25 MBq/mL: human, serum, n=3, read-out: Intact tracer in human serum, 24 h. As to the method: Stability studies in human serum were also performed by incubating the ^18F-labeled ligands [^18F][^natGa]Ga-(SiFA)-SeFe-rhTATE1, [^18F][^natGa]Ga-(SiFA)SeFe-rhTATE2, [^18F][^natLu]Lu-(SiFA)SeFe-rhTATE3 and [^18F][^natLu]Lu-(SiFA)BA-rhTATE3 (for 1 h), as well as the ^177Lu-labeled ligands [^177Lu]Lu-(SiFA)SeFe-rhTATE3 and [^177Lu]Lu-(SiFA)BA-rhTATE3 for 1 and 24 h at 37 °C (Figure 3D). Afterward, the samples were analyzed for the intact tracer by radio-RP-HPLC (see SI, Table S4).
5 MBq of the respective ^18F-/^177Lu-labeled compound was added to 200 μL of human serum (from a healthy volunteer) and incubated at 37 °C for 1 h. After the addition of 50 vol % of cold ethanol and 150 vol % of cold MeCN, centrifugation was performed at 13.000 rpm for 20 min. The supernatant was decanted and centrifuged at 13.000 rpm for 10 min in a centrifuge tube with a 0.45 μm cellulose acetate filter. […] of the remaining filtrate was injected into RP-HPLC and the number of intact radioligand was quantified.

T1 sequence (P02768 25-609): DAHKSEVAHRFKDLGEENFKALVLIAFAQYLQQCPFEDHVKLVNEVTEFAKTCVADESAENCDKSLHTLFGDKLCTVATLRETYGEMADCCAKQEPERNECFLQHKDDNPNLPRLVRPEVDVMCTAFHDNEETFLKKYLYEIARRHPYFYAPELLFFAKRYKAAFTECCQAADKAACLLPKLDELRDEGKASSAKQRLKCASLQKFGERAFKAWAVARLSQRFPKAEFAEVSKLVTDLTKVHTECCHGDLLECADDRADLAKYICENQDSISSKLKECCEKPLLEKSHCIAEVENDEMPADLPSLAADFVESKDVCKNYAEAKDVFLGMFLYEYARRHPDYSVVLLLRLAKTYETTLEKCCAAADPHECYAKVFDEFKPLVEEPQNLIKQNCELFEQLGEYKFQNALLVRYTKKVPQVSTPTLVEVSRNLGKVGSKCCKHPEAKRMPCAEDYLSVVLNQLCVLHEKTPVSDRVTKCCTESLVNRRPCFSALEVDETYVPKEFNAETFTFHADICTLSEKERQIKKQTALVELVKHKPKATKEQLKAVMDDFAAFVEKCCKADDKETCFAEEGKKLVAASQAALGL

Regarding `C[C@@H](O)[C@H](NC(=O)[C@@H]1CSSC[C@H](NC(=O)[C@@H](Cc2ccccc2)NC(=O)CN2CCN(CC(=O)O)CCN(CC(=O)NC[C@@H](NC(=O)c3cc(CNC(=O)C[C@@H](N)C(=O)O)cc([Si](F)(C(C)(C)C)C(C)(C)C)c3)C(=O)O)CCN(CC(=O)O)CC2)C(=O)N[C@@H](Cc2ccc(O)cc2)C(=O)N[C@H](Cc2c[nH]c3ccccc23)C(=O)N[C@@H](CCCCN)C(=O)N[C@@H]([C@@H](C)O)C(=O)N1)C(=O)O` [[natGa]Ga-(SiFA)SeFe-rhTATE2, metal not drawn], the figures for the “HSA binding (HPAC)” value in data set [1] and in data set [1] (listed as [^natGa]Ga-(SiFA)SeFe-rhTATE2) were 99% and 98−99%, respectively. As for `C[C@@H](O)[C@H](NC(=O)[C@@H]1CSSC[C@H](NC(=O)[C@@H](Cc2ccccc2)NC(=O)COCCOCCNC(=O)[C@@H](CNC(=O)CN2CCN(CC(=O)O)CCN(CC(=O)O)CCN(CC(=O)O)CC2)NC(=O)COCCOCCNC(=O)c2cc(CN)cc([Si](F)(C(C)(C)C)C(C)(C)C)c2)C(=O)N[C@@H](Cc2ccc(O)cc2)C(=O)N[C@H](Cc2c[nH]c3ccccc23)C(=O)N[C@@H](CCCCN)C(=O)N[C@@H]([C@@H](C)O)C(=O)N1)C(=O)O` [[natLu]Lu-(SiFA)SeFe-rhTATE3, metal not drawn], the “HSA binding (HPAC)” value is listed as 98% in data set [1] and 98−99% in data set [1] (listed as [^natLu]Lu-(SiFA)SeFe-rhTATE3).

For the molecule `C[C@@H](O)[C@H](NC(=O)[C@@H]1CSSC[C@H](NC(=O)[C@@H](Cc2ccccc2)NC(=O)COCCOCCNC(=O)[C@@H](CNC(=O)CN2CCN(CC(=O)O)CCN(CC(=O)O)CCN(CC(=O)O)CC2)NC(=O)COCCOCCNC(=O)c2cc(CN)cc([Si](F)(C(C)(C)C)C(C)(C)C)c2)C(=O)N[C@@H](Cc2ccc(O)cc2)C(=O)N[C@H](Cc2c[nH]c3ccccc23)C(=O)N[C@@H](CCCCN)C(=O)N[C@@H]([C@@H](C)O)C(=O)N1)C(=O)O` [[177Lu]Lu-(SiFA)SeFe-rhTATE3, metal not drawn], in data set [2], the “Intact tracer in human serum, 24 h” value is 94 ± 3.0% and the remaining at 24 h, 25 MBq/mL came out at 94%.

Consider `CC(=O)N[C@@H]1[C@@H](O)[C@H](O)[C@@H](CO)O[C@H]1NC(=O)C[C@H](NC(=O)CON=CCCC[N+](C)(C)Cc1ccc([Si](F)(C(C)(C)C)C(C)(C)C)cc1)C(=O)N[C@@H](CC(=O)O)C(=O)N[C@@H](CC(=O)O)C(=O)NCCOCCOCC(=O)N[C@H](Cc1ccccc1)C(=O)N[C@H]1CSSC[C@@H](C(=O)N[C@H](C(=O)O)[C@@H](C)O)NC(=O)[C@H]([C@@H](C)O)NC(=O)[C@H](CCCCN)NC(=O)[C@@H](Cc2c[nH]c3ccccc23)NC(=O)[C@H](Cc2ccc(O)cc2)NC1=O` [SiFAlin-TATE, reference compound], for which, in data set [1], the “HSA binding (HPAC)” value came out at 92%.

As for `C[C@@H](O)[C@H](NC(=O)[C@@H]1CSSC[C@H](NC(=O)[C@@H](Cc2ccccc2)NC(=O)CN2CCN(CC(=O)O)CCN(CC(=O)NC[C@@H](NC(=O)c3cc(CN)cc([Si](F)(C(C)(C)C)C(C)(C)C)c3)C(=O)O)CCN(CC(=O)O)CC2)C(=O)N[C@@H](Cc2ccc(O)cc2)C(=O)N[C@H](Cc2c[nH]c3ccccc23)C(=O)N[C@@H](CCCCN)C(=O)N[C@@H]([C@@H](C)O)C(=O)N1)C(=O)O` [[natGa]Ga-(SiFA)SeFe-rhTATE1, metal not drawn], the “HSA binding (HPAC)” value in data set [1] was 99%; in data set [1] (listed as [^natGa]Ga-(SiFA)SeFe-rhTATE1), 98−99%. As for `C[C@@H](O)[C@H](NC(=O)[C@@H]1CSSC[C@H](NC(=O)[C@@H](Cc2ccccc2)NC(=O)COCCOCCNC(=O)[C@@H](CNC(=O)CN2CCN(CC(=O)O)CCN(CC(=O)O)CCN(CC(=O)O)CC2)NC(=O)COCCOCCNC(=O)c2ccc([Si](F)(C(C)(C)C)C(C)(C)C)cc2)C(=O)N[C@@H](Cc2ccc(O)cc2)C(=O)N[C@H](Cc2c[nH]c3ccccc23)C(=O)N[C@@H](CCCCN)C(=O)N[C@@H]([C@@H](C)O)C(=O)N1)C(=O)O` [[177Lu]Lu-(SiFA)BA-rhTATE3, metal not drawn], in data set [2], the “Intact tracer in human serum, 24 h” value was 60 ± 1.0% and the remaining at 24 h, 25 MBq/mL stood at 60%.
